Measured values reported in PubChem BioAssay (NCI).
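The concentration for 50% growth inhibition is given as GI50. TGI marks complete inhibition of growth.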

Columns and labels:
Experiment in all cases: DTP human tumour cell line panel, 384-well format
HOP-92 NSCLC = system: HOP-92 NSCLC
BT-549 breast = system: BT-549 breast
SNB-75 CNS = system: SNB-75 CNS
HL-60(TB) leukemia = system: HL-60(TB) leukemia
SF-539 CNS = system: SF-539 CNS
HS 578T breast = system: HS 578T breast
HOP-62 NSCLC = system: HOP-62 NSCLC
SN12C renal = system: SN12C renal
DU-145 prostate = system: DU-145 prostate
EKVX NSCLC = system: EKVX NSCLC
LOX IMVI melanoma = system: LOX IMVI melanoma
MALME-3M melanoma = system: MALME-3M melanoma
HCT-116 colon = system: HCT-116 colon
HCC-2998 colon = system: HCC-2998 colon
MDA-MB-231 breast = system: MDA-MB-231 breast
TK-10 renal = system: TK-10 renal
T-47D breast = system: T-47D breast
SF-268 CNS = system: SF-268 CNS
NCI-H226 lung = system: NCI-H226 lung
MDA-MB-468 breast = system: MDA-MB-468 breast
UACC-62 melanoma = system: UACC-62 melanoma
A498 renal = system: A498 renal
OVCAR-3 ovarian = system: OVCAR-3 ovarian
OVCAR-8 ovarian = system: OVCAR-8 ovarian
CAKI-1 renal = system: CAKI-1 renal
RXF 393 renal = system: RXF 393 renal
ACHN renal = system: ACHN renal
NCI-H322M lung = system: NCI-H322M lung
HT29 colon = system: HT29 colon
MOLT-4 leukemia = system: MOLT-4 leukemia
SK-MEL-5 melanoma = system: SK-MEL-5 melanoma
NCI-H522 lung = system: NCI-H522 lung
PC-3 prostate = system: PC-3 prostate
SR leukemia = system: SR leukemia
OVCAR-4 ovarian = system: OVCAR-4 ovarian
MCF7 breast = system: MCF7 breast
U251 glioblastoma = system: U251 glioblastoma
SK-OV-3 ovarian = system: SK-OV-3 ovarian
HCT-15 colon = system: HCT-15 colon
M14 melanoma = system: M14 melanoma
MDA-MB-435 melanoma = system: MDA-MB-435 melanoma
NCI/ADR-RES ovarian = system: NCI/ADR-RES ovarian
NCI-H460 NSCLC = system: NCI-H460 NSCLC
A549 NSCLC = system: A549 NSCLC
OVCAR-5 ovarian = system: OVCAR-5 ovarian
SF-295 CNS = system: SF-295 CNS
UACC-257 melanoma = system: UACC-257 melanoma
COLO 205 colon = system: COLO 205 colon
SNB-19 CNS = system: SNB-19 CNS
RPMI-8226 leukemia = system: RPMI-8226 leukemia
NCI-H23 lung = system: NCI-H23 lung
SK-MEL-28 melanoma = system: SK-MEL-28 melanoma
KM12 colon = system: KM12 colon
IGROV1 ovarian = system: IGROV1 ovarian

`CNC(=O)c1cc(COc2nnc(Nc3ccc(Cl)cc3)c3ccoc23)ccn1` showed a GI50 (HOP-92 NSCLC) of 4.23 µM, a TGI (HOP-92 NSCLC) of 14.2 µM and a GI50 (BT-549 breast) of 9.44 µM. It also gave a TGI (BT-549 breast) of 21.9 µM, a GI50 (SNB-75 CNS) of 3.09 µM and a TGI (SNB-75 CNS) of 11 µM. For the same compound, the GI50 (HL-60(TB) leukemia) was > 100 µM, the TGI (HL-60(TB) leukemia) was > 100 µM and the GI50 (SF-539 CNS) was 1.49 µM. For the same compound, the TGI (SF-539 CNS) was 3.07 µM, the GI50 (HS 578T breast) was 2.73 µM and the TGI (HS 578T breast) was 8.17 µM. The GI50 (HOP-62 NSCLC) was 4.89 µM, the TGI (HOP-62 NSCLC) was 15.5 µM and the GI50 (SN12C renal) was 12.9 µM. It also gave a TGI (SN12C renal) of 31.7 µM, a GI50 (DU-145 prostate) of 12.4 µM and a TGI (DU-145 prostate) of 25.2 µM. For the same compound, the GI50 (EKVX NSCLC) was 13.6 µM, the TGI (EKVX NSCLC) was 26.8 µM and the GI50 (LOX IMVI melanoma) was 18.6 µM. For the same compound, the TGI (LOX IMVI melanoma) was 43.8 µM, the GI50 (MALME-3M melanoma) was 5.69 µM and the TGI (MALME-3M melanoma) was 18 µM. The GI50 (HCT-116 colon) was 4.08 µM, the TGI (HCT-116 colon) was 14.9 µM and the GI50 (HCC-2998 colon) was 11.1 µM. It also gave a TGI (HCC-2998 colon) of 30 µM, a GI50 (MDA-MB-231 breast) of 4.69 µM and a TGI (MDA-MB-231 breast) of 18.3 µM. For the same compound, the GI50 (TK-10 renal) was 10.3 µM, the TGI (TK-10 renal) was 22.3 µM and the GI50 (T-47D breast) was 15.4 µM. For the same compound, the TGI (T-47D breast) was 46.9 µM, the GI50 (SF-268 CNS) was 3.03 µM and the TGI (SF-268 CNS) was 8.04 µM. It also gave a GI50 (NCI-H226 lung) of 15.2 µM, a TGI (NCI-H226 lung) of 29.5 µM and a GI50 (MDA-MB-468 breast) of 2.29 µM. It also gave a TGI (MDA-MB-468 breast) of 4.86 µM, a GI50 (UACC-62 melanoma) of 3.51 µM and a TGI (UACC-62 melanoma) of 12.2 µM. It also gave a GI50 (A498 renal) of 9.38 µM, a TGI (A498 renal) of 21.3 µM and a GI50 (OVCAR-3 ovarian) of 14.3 µM. It also gave a TGI (OVCAR-3 ovarian) of 27.9 µM, a GI50 (OVCAR-8 ovarian) of 1.96 µM and a TGI (OVCAR-8 ovarian) of 3.68 µM. The GI50 (CAKI-1 renal) was 3.38 µM, the TGI (CAKI-1 renal) was 11.7 µM and the GI50 (RXF 393 renal) was 2.84 µM. For the same compound, the TGI (RXF 393 renal) was 8.62 µM, the GI50 (ACHN renal) was 11.1 µM and the TGI (ACHN renal) was 25.5 µM. It also gave a GI50 (NCI-H322M lung) of 11.9 µM, a TGI (NCI-H322M lung) of 25.1 µM and a GI50 (HT29 colon) of 2.4 µM. For the same compound, the TGI (HT29 colon) was 5.67 µM, the GI50 (MOLT-4 leukemia) was 34.8 µM and the TGI (MOLT-4 leukemia) was > 100 µM. The GI50 (SK-MEL-5 melanoma) was 8.37 µM, the TGI (SK-MEL-5 melanoma) was 20.7 µM and the GI50 (NCI-H522 lung) was 5.23 µM. It also gave a TGI (NCI-H522 lung) of 17 µM, a GI50 (PC-3 prostate) of 11.3 µM and a TGI (PC-3 prostate) of 25.5 µM. For the same compound, the GI50 (SR leukemia) was 2.5 µM, the TGI (SR leukemia) was 4.87 µM and the GI50 (OVCAR-4 ovarian) was 5.31 µM. For the same compound, the TGI (OVCAR-4 ovarian) was 16.6 µM, the GI50 (MCF7 breast) was 4.71 µM and the TGI (MCF7 breast) was 17.6 µM. For the same compound, the GI50 (U251 glioblastoma) was 10.2 µM, the TGI (U251 glioblastoma) was 21.9 µM and the GI50 (SK-OV-3 ovarian) was 2.8 µM. The TGI (SK-OV-3 ovarian) was 9.01 µM, the GI50 (HCT-15 colon) was 11.8 µM and the TGI (HCT-15 colon) was 27.3 µM. It also gave a GI50 (M14 melanoma) of 19.3 µM, a TGI (M14 melanoma) of 38.6 µM and a GI50 (MDA-MB-435 melanoma) of 19.1 µM. The TGI (MDA-MB-435 melanoma) was 37.5 µM, the GI50 (NCI/ADR-RES ovarian) was 8.44 µM and the TGI (NCI/ADR-RES ovarian) was 20.8 µM. For the same compound, the GI50 (NCI-H460 NSCLC) was 8.81 µM, the TGI (NCI-H460 NSCLC) was 21 µM and the GI50 (A549 NSCLC) was 5.43 µM. The TGI (A549 NSCLC) was 19.1 µM, the GI50 (OVCAR-5 ovarian) was 21.9 µM and the TGI (OVCAR-5 ovarian) was 40.2 µM. For the same compound, the GI50 (SF-295 CNS) was 2.4 µM, the TGI (SF-295 CNS) was 5.78 µM and the GI50 (UACC-257 melanoma) was 7.95 µM. The TGI (UACC-257 melanoma) was 20.8 µM, the GI50 (COLO 205 colon) was 20 µM and the TGI (COLO 205 colon) was 37.2 µM. The GI50 (SNB-19 CNS) was 13.1 µM, the TGI (SNB-19 CNS) was 26 µM and the GI50 (RPMI-8226 leukemia) was 14.1 µM. The TGI (RPMI-8226 leukemia) was 39.9 µM, the GI50 (NCI-H23 lung) was 2.45 µM and the TGI (NCI-H23 lung) was 5.19 µM. It also gave a GI50 (SK-MEL-28 melanoma) of 5.17 µM, a TGI (SK-MEL-28 melanoma) of 17.6 µM and a GI50 (KM12 colon) of 3.29 µM. For the same compound, the TGI (KM12 colon) was 8.84 µM, the GI50 (IGROV1 ovarian) was 12.2 µM and the TGI (IGROV1 ovarian) was 26.7 µM.
